{"source": "patent US20060142249A1", "about": "“Ophthalmic use” (priority 2002, published 2006)", "key": {"GABA-B": {"molecular_target": "GABA-B (Homo sapiens, UniProt Q9UBS5)", "sequence (Q9UBS5 15-961 limits assumed)": "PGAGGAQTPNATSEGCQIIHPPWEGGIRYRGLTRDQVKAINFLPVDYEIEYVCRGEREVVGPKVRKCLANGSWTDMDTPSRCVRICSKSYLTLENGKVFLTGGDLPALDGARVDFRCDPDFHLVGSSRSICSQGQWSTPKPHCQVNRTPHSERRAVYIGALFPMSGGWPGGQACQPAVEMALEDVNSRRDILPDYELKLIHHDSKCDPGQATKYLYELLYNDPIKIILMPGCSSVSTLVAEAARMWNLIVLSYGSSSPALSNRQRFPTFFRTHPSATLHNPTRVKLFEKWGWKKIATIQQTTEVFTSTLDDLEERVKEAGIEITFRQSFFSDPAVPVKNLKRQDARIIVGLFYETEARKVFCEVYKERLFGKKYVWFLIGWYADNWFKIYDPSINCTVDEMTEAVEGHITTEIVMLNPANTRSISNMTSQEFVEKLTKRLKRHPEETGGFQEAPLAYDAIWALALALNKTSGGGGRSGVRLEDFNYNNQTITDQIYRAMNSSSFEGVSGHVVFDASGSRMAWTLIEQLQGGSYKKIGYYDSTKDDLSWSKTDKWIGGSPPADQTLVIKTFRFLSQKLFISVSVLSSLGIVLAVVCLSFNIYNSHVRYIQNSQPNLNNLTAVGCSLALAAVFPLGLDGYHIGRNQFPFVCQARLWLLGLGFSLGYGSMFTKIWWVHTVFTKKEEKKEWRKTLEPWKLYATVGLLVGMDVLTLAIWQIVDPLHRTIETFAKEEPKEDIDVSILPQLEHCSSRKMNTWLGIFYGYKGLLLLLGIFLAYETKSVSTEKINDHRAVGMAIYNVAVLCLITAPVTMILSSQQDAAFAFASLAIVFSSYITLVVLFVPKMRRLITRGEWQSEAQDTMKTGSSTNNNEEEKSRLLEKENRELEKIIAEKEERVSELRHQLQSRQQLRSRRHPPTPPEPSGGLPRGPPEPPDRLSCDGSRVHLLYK", "sequence (O75899 42-941 partner)": "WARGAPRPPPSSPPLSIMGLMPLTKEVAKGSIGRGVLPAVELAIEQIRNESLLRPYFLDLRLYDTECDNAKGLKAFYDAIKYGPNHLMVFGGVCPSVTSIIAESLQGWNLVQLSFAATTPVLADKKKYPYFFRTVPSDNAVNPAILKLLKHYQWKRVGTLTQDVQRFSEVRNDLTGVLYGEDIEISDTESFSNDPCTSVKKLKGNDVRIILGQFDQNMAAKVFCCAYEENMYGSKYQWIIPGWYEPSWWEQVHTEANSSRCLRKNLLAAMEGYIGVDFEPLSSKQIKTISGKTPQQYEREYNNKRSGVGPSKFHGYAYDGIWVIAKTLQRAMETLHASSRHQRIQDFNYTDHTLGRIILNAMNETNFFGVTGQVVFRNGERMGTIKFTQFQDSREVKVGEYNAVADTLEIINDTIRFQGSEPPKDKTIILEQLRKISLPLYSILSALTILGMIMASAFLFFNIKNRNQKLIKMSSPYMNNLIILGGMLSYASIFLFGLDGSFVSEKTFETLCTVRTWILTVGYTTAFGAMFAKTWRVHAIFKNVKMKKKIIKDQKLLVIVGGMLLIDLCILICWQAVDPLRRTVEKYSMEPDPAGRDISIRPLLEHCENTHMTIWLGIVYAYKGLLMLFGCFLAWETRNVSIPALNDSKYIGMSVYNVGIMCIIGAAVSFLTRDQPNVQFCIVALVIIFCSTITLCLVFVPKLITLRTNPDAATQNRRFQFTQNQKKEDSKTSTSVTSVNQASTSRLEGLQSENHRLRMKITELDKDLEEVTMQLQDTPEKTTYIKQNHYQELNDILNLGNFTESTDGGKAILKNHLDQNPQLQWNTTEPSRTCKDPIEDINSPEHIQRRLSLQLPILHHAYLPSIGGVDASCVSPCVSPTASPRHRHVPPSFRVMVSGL", "experiment": "Receptor profile, GABA-B", "assay_type": "biochemical"}, "GABA-C": {"tested_on": "GABA-C", "experiment": "Receptor profile, GABA-C", "assay_type": "biochemical"}}, "data": [{"smiles": "CP(=O)(O)C1=CCNCC1", "note": "[TPMPA]", "values": [{"measurement": "GABA-B mode of action (agonist/antagonist)", "setting": "GABA-B", "value": "agonist"}, {"measurement": "GABA-C mode of action (agonist/antagonist)", "setting": "GABA-C", "value": "antagonist"}]}]}
